Molecules are shown by their SMILES.

The experiment has as its system HIV-1 wild-type (R8) virus. Put plainly: Viral KINetics in Green cells (VIKING) assay, HIV-1 replication in MT4-GFP reporter cells. The following applies: Human immunodeficiency virus 1, 10% normal human serum, MT4-GFP cells, HIV-1 wild-type (R8); read-out: Viking (10% NHS), IC50. It counts as cell-based. Here is the method: Antiviral potency of the compounds was determined based on their ability to block HIV-1 replication in a GFP reporter cell line; this assay is referred to as Viral KINetics in Green cells or VIKING assay. HIV-1 replication was monitored using MT4-gag-GFP clone D3 (hereafter designate MT4-GFP) cells, which are MT4 cells modified to harbor a GFP reporter gene, the expression of which is dependent on the HIV-1 proteins tat and rev. (MT4 is a human T-cell line that is particularly sensitive to HIV-1 replication.) HIV-1 infection of MT4-GFP cells results in GFP expression approximately 24 h post-infection. MT4-GFP cells were maintained at 37° C./5% CO2/90% relative humidity in RPMI 1640 supplemented with 10% fetal bovine serum, 100 U/mL penicillin/streptomycin, and […] G418 to maintain the reporter gene. For infections, MT4-GFP cells were placed in the same medium lacking G418 and infected overnight with HIV-1 wild-type (R8) virus at an approximate multiplicity of infection of 0.01 in the same incubation conditions. Cells were then washed and resuspended in RPMI 1640 containing 10% normal human serum at 2×10^5 cells/mL. Compound plates were prepared by dispensing compounds dissolved in DMSO into wells of 384-well poly D lysine-coated plates (0.2 μl/well) using an ECHO acoustic dispenser. Each compound was tested in a 10-point serial 3-fold dilution (typical final concentrations: 4 μM-0.2 nM). Controls included no inhibitor (DMSO only) and a combination of three antiviral agents as a positive control (efavirenz, indinavir, and an integrase strand transfer inhibitor at final concentrations of 4 μM each). Infected cells were added (50 μL/well) to compound plates and were maintained at 37° C./5% CO2/90% relative humidity. Infected cells were quantified at two time points, approximately 48 h and 72 h post-infection, by counting the number of green cells in each well using an Acumen eX3 scanner. The increase in the number of green cells over ˜24 h period gives the reproductive ratio, R, which is calculated by dividing the number of green cells at 72 h over those at 48 h post-infection. The percent inhibition caused by a test compound is calculated using the following formula: […]
The dose-response curves of each test compound were plotted as % inhibition versus the compound concentration. IC50 values were determined by non-linear 4-parameter fitting of the dose-response curves.
For the compound `C#C[C@]1(COC(=O)CC(C)(C)c2c(C)cc(C)cc2OC(C)=O)O[C@@H](n2ccc3c(N)nc(Cl)nc32)C[C@@H]1O` [Example 183], the IC50 – broadly, the point on the concentration scale where inhibition reaches its midpoint – stood at 0.0027 µM. The result for `C#C[C@]1(COC(=O)CC23CC(C2)C3)O[C@@H](n2ccc3c(N)nc(Cl)nc32)C[C@@H]1OC(=O)CC12CC(C1)C2` [Example 95] reads 0.0086 µM; that for `C#C[C@]1(COC(=O)CCCCC)O[C@@H](n2ccc3c(N)nc(Cl)nc32)C[C@@H]1OC(=O)OCc1cccnc1` [Example 192], 0.0065 µM. The result for `C#C[C@]1(CO)O[C@@H](n2ccc3c(N)nc(Cl)nc32)C[C@@H]1OC(=O)OCc1ccn(C)c(=O)c1` [Example 158] reads 0.011 µM. The result for `C#C[C@]1(COC(=O)OCc2ccccc2)O[C@@H](n2ccc3c(N)nc(Cl)nc32)C[C@@H]1OC(=O)OCCC12CC3CC(CC(C3)C1)C2` [Example 215] reads 0.044 µM; that for `C#C[C@]1(COC(=O)C23CC(C2)C3)O[C@@H](n2ccc3c(N)nc(Cl)nc32)C[C@@H]1OC(=O)C12CC(C1)C2` [Example 104], 0.0041 µM.

For `C#C[C@]1(COC(=O)OCCCCCCCC)O[C@@H](n2ccc3c(N)nc(Cl)nc32)C[C@@H]1OC(C)=O` [Example 112], the IC50 worked out at 0.028 µM. In the case of `C#C[C@]1(CO)O[C@@H](n2ccc3c(N)nc(Cl)nc32)C[C@@H]1OC(=O)OCc1cc[nH]c(=O)c1` [Example 159], the IC50 came to 0.014 µM. With `C#C[C@]1(CO)O[C@@H](n2ccc3c(N)nc(Cl)nc32)C[C@@H]1OC(=O)OCc1cccn(C)c1=O` [Example 67, (2R,3S,5R)-5-(4-amino-2-chloro-7H-pyrrolo[2,3-d]pyrimidin-7-yl)-2-ethynyl-2-(hydroxymethyl)tetrahydrofuran-3-yl ((1-methyl-2-oxo-1,2-dihydropyridin-3-yl)methyl) carbonate], the IC50 worked out at 0.0064 µM. The same measure for `C#C[C@]1(CO)O[C@@H](n2ccc3c(NC(=O)OCCCCC[C@@H]4SC[C@@H]5NC(=O)N[C@@H]54)nc(Cl)nc32)C[C@@H]1O` [Example 151]: 0.017 µM.

With `C#C[C@]1(CO)O[C@@H](n2ccc3c(N)nc(Cl)nc32)C[C@@H]1OC(=O)C12CC(C1)C2` [Example 105], the IC50 came to 0.0035 µM. For `C#C[C@]1(CO)O[C@@H](n2ccc3c(NC(=O)OCC4CCCCC4)nc(Cl)nc32)C[C@@H]1O` [Example 150], the IC50 was 0.74 µM.

For `C#C[C@]1(COC(=O)OCc2cccn(C)c2=O)O[C@@H](n2ccc3c(N)nc(Cl)nc32)C[C@@H]1O` [Example 208], the IC50 is 0.0044 µM.

As to `C#C[C@]1(CO)O[C@@H](n2ccc3c(N)nc(Cl)nc32)C[C@@H]1OC(=O)OCc1ccc[nH]c1=O` [Example 201], the IC50 was 0.0026 µM. The same measure for `C#C[C@]1(COC(=O)O[C@H](C)c2ccccc2)O[C@@H](n2ccc3c(N)nc(Cl)nc32)C[C@@H]1O` [Example 125]: 0.0037 µM; for `C#C[C@]1(COC(=O)CC23CC(C2)C3)O[C@@H](n2ccc3c(N)nc(Cl)nc32)C[C@@H]1O` [Example 97]: 0.0016 µM.

For `C#C[C@]1(COC(=O)OCCC23CC(C2)C3)O[C@@H](n2ccc3c(N)nc(Cl)nc32)C[C@@H]1OC(=O)OCCC12CC(C1)C2` [Example 169], the IC50 worked out at 0.013 µM. The result for `C#C[C@]1(COC(=O)OCc2cccnc2)O[C@@H](n2ccc3c(N)nc(Cl)nc32)C[C@@H]1OC(=O)OCc1cccnc1` [Example 164] reads 0.013 µM. The same measure for `C#C[C@]1(COC(=O)CCCCC)O[C@@H](n2ccc3c(N)nc(Cl)nc32)C[C@@H]1OC(=O)CCCC[C@@H]1SC[C@@H]2NC(=O)N[C@@H]21` [Example 191]: 0.02 µM; for `C#C[C@]1(COC(=O)OCc2cccnc2)O[C@@H](n2ccc3c(N)nc(Cl)nc32)C[C@@H]1O` [Example 165]: 0.0049 µM; for `C#C[C@]1(COC(=O)CCCCCCCC)O[C@@H](n2ccc3c(N)nc(Cl)nc32)C[C@@H]1O` [Example 118]: 0.0043 µM. The result for `C#C[C@]1(CO)O[C@@H](n2ccc3c(N)nc(Cl)nc32)C[C@@H]1OCOC(=O)C(C)C` [Example 140] reads 0.005 µM; that for `C#C[C@]1(CO)O[C@@H](n2ccc3c(N)nc(Cl)nc32)C[C@@H]1OC(=O)[C@H](C)c1ccccc1` [Example 99], 0.029 µM. For the compound `C#C[C@]1(CO)O[C@@H](n2ccc3c(N(C(=O)OCCCCCCCCCC)C(=O)OCCCCCCCCCC)nc(Cl)nc32)C[C@@H]1O` [Example 220], the IC50 was determined as 0.615 µM.

`C#C[C@]1(COC(=O)OCC23CC(C2)C3)O[C@@H](n2ccc3c(N)nc(Cl)nc32)C[C@@H]1O` [Example 168]: the concentration for half-maximal inhibition (IC50) is 0.0039 µM. Turning to `C#C[C@]1(COC(=O)OCCCCC[C@@H]2SC[C@@H]3NC(=O)N[C@@H]32)O[C@@H](n2ccc3c(N)nc(Cl)nc32)C[C@@H]1OC(=O)OCCC12CC3CC(CC(C3)C1)C2` [Example 176], the half-inhibitory concentration (IC50) was found to be 0.127 µM.

Turning to `C#C[C@]1(COC(=O)OCCCc2ccccc2)O[C@@H](n2ccc3c(N)nc(Cl)nc32)C[C@@H]1O` [Example 128], the IC50 stood at 0.003 µM. As for `C#C[C@]1(COC(=O)Cc2ccc(Cl)cc2)O[C@@H](n2ccc3c(NC(=O)CCc4ccccc4)nc(Cl)nc32)C[C@@H]1O` [Example 147], the IC50 is 0.055 µM. The same measure for `C#C[C@]1(CO)O[C@@H](n2ccc3c(N)nc(Cl)nc32)C[C@@H]1OC(=O)CC12CC(C1)C2` [Example 96]: 0.0071 µM. The same measure for `C#C[C@]1(COC(=O)OCC(C)(C)C)O[C@@H](n2ccc3c(N)nc(Cl)nc32)C[C@@H]1O` [Example 123]: 0.0041 µM; for `C#C[C@]1(COC(=O)OCc2ccccc2)O[C@@H](n2ccc3c(NC(=O)CCc4ccccc4)nc(Cl)nc32)C[C@@H]1OC(=O)OCc1ccccc1` [Example 203]: 0.047 µM; for `C#C[C@]1(COC(=O)O[C@@H](C)c2ccccc2)O[C@@H](n2ccc3c(N)nc(Cl)nc32)C[C@@H]1O` [Example 127]: 0.0038 µM. The result for `C#C[C@]1(COC(=O)OCc2ccn(C)c(=O)c2)O[C@@H](n2ccc3c(N)nc(Cl)nc32)C[C@@H]1O` [Example 131] reads 0.0035 µM; that for `C#C[C@]1(CO)O[C@@H](n2ccc3c(N)nc(Cl)nc32)C[C@@H]1OC(=O)OCC` [Example 155], 0.029 µM; that for `C#C[C@]1(COCOC(=O)Oc2ccccc2)O[C@@H](n2ccc3c(N)nc(Cl)nc32)C[C@@H]1O` [Example 135], 0.0038 µM. Take `C#C[C@]1(CO)O[C@@H](n2ccc3c(NC(=O)OCCC45CC6CC(CC(C6)C4)C5)nc(Cl)nc32)C[C@@H]1O` [Example 148]: the half-maximal inhibitory concentration (IC50) was determined as 0.339 µM. Consider `C#C[C@]1(COC(=O)CC23CC(C2)C3)O[C@@H](n2ccc3c(N)nc(Cl)nc32)C[C@@H]1OC(=O)OCCC12CC3CC(CC(C3)C1)C2` [Example 108], for which the IC50 was 0.02 µM. As to `C#C[C@]1(COC(=O)CCCCCCCCCCCCCCCCCCC)O[C@@H](n2ccc3c(N)nc(Cl)nc32)C[C@@H]1O` [Example 91], the IC50 is 0.135 µM. The result for `C#C[C@]1(COC(=O)OCc2ccc[nH]c2=O)O[C@@H](n2ccc3c(N)nc(Cl)nc32)C[C@@H]1O` [Example 209] reads 0.0039 µM; that for `C#C[C@]1(CO)O[C@@H](n2ccc3c(NC(=O)OCCCCCCCCCCCC)nc(Cl)nc32)C[C@@H]1O` [Example 219], 2.41 µM. The same measure for `C#C[C@]1(CO)O[C@@H](n2ccc3c(NC(=O)OCc4ccccc4)nc(Cl)nc32)C[C@@H]1O` [Example 72, benzyl (2-chloro-7-((2R,4S,5R)-5-ethynyl-4-hydroxy-5-(hydroxymethyl)tetrahydrofuran-2-yl)-7H-pyrrolo[2,3-d]pyrimidin-4-yl)carbamate]: 0.544 µM; for `C#C[C@]1(CO)O[C@@H](n2ccc3c(N)nc(Cl)nc32)C[C@@H]1OC(=O)OCC12CC(C1)C2` [Example 110]: 0.0027 µM; for `C#C[C@]1(COCOC(=O)c2ccccc2)O[C@@H](n2ccc3c(N)nc(Cl)nc32)C[C@@H]1OC(=O)c1ccccc1` [Example 138]: 0.041 µM. The result for `C#C[C@]1(CO)O[C@@H](n2ccc3c(N(C(=O)CCC45CC6CC(CC(C6)C4)C5)C(=O)CCC45CC6CC(CC(C6)C4)C5)nc(Cl)nc32)C[C@@H]1O` [Example 217] reads greater than 4.03 µM; that for `C#C[C@]1(COC(=O)CCCC)O[C@@H](n2ccc3c(N)nc(Cl)nc32)C[C@@H]1OC(=O)CC` [Example 187], 0.027 µM; that for `C#C[C@]1(CO)O[C@@H](n2ccc3c(N)nc(Cl)nc32)C[C@@H]1OC(=O)OCCC12CC(C1)C2` [Example 111], 0.0052 µM. As for `C#C[C@]1(CO)O[C@@H](n2ccc3c(N)nc(Cl)nc32)C[C@@H]1OC(=O)CCCCCCCCCCCCCCC` [Example 83], the IC50 came out at 0.025 µM.

The values are drawn from patent publication US20240287124A1, “PRODRUGS OF 4'-SUBSTITUTED NUCLEOSIDE REVERSE TRANSCRIPTASE INHIBITORS” (Merck Sharp & Dohme LLC, priority 2023, published 2024).
